How the values were obtained:
[1] = test system: colorectal cancer cells (LoVo, RKO, SW620, HCT15, HCT116); assay: CCK-8 cell viability assay, colorectal cancer cells; assay type: cell-based, human; settings: LoVo, RKO, SW620, HCT15, HCT116; 48 h
Description: Cell viability was determined using the CCK-8 assay. Briefly, 5×10³ cells were seeded into 96-well culture plates, allowed to adhere for overnight, and then changed to fresh medium containing various concentrations of SHK (0, 0.5, 1, 2 and 5 µM) dissolved in DMSO (final concentration, 0.1%). After incubation for 48 h, the CCK-8 reagent was added, and the absorbance was measured at 450 nm using an EnSpire® Multimode Plate Reader (Perkin Elmer, USA). The cell viability in the vehicle control groups was defined as 100%. Each assay was carried out in triplicate.

NEMO/IKKβ complex = target: T1, NEMO/IKKβ complex (Homo sapiens, UniProt O14920+Q9Y6K9); assay: Co-immunoprecipitation of NEMO/IKKβ; settings: pre-formed complex, Co-IP
T1 construct: expressed in transfected cells; host or cells: HEK293T
Description: The pre-cleared cell lysates were incubated with an anti-HA antibody on a rotating platform at 4 °C for 2 h, and then incubated for another 6 h with protein A/G-sepharose beads. The sepharose beads were washed three times with binding buffer, mixed with gel loading buffer and boiled for 5 min. The samples were centrifuged and the supernatants were used for western blot analysis. A specific antibody against the Flag-tag was applied for the detection of proteins.
The IKKβ and NEMO expression vectors were constructed by subcloning the full-length cDNA to pENTER-4T1 expression vector (Flag- or HA-tagged) developed by ViGene Biosciences, as described previously.[25] The 293T cells (1 × 10^6) were plated into 60 mm dishes for 1 day, and then transfected with the relevant plasmids encoding HA-IKKβ and Flag-NEMO using Lipofectamine 2000 transfection reagent (Invitrogen). After transfection, the cells were cultured for another 24 h. Subsequently, the transfected cells were trypsinized and seeded into 60 mm dishes, followed by culturing with fresh medium containing the indicated doses of SHK for 48 h, and then collected for the Co-IP assay.

T1 sequence (Q9Y6K9 1-196): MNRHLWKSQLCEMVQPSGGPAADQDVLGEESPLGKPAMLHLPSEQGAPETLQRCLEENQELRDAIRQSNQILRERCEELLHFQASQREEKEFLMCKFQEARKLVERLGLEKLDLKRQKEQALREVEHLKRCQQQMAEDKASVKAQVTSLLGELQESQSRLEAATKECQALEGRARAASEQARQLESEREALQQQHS
T1 sequence (O14920 701-745): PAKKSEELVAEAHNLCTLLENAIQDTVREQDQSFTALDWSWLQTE

CC(=O)O[C@H](CC=C(C)C)C1=CC(=O)c2c(O)ccc(O)c2C1=O [ASHK, acetyl shikonin]
growth inhibition of cancer cell lines [1]: only slight growth inhibition
ability to destabilize the NEMO/IKKβ complex (NEMO/IKKβ complex): lost the ability to destabilize the NEMO/IKKβ complex

CC(C)=CCCC1=CC(=O)c2c(O)ccc(O)c2C1=O [DSHK, deoxyshikonin]
growth inhibition of cancer cell lines [1]: only slight growth inhibition
ability to destabilize the NEMO/IKKβ complex (NEMO/IKKβ complex): lost the ability to destabilize the NEMO/IKKβ complex

COC(CC=C(C)C)C1=CC(=O)c2c(O)ccc(O)c2C1=O (stereo not drawn) [MSHK, methylshikonin]
growth inhibition of cancer cell lines [1]: only slight growth inhibition
ability to destabilize the NEMO/IKKβ complex (NEMO/IKKβ complex): lost the ability to destabilize the NEMO/IKKβ complex

From paper PMC8904520, “Characterization of a small-molecule inhibitor targeting NEMO/IKKβ to suppress colorectal cancer growth” (Signal Transduction and Targeted Therapy, 2022)
